melting point	SMILES
170 to 171 °C	COC(=O)c1ccc(NC(=O)CCCc2oc(-c3ccccc3)nc2-c2ccc(Cl)cc2)cc1 [Example 50, 4-[4-(4-chlorophenyl)-2-phenyl-5-oxazolyl]-N-[4-(methoxycarbonyl)phenyl]butanamide]
215 to 216 °C	COc1ccc(-c2nc(-c3ccc(Cl)cc3)c(CCC(N)=O)o2)cc1 [Example 28, 3-[4-(4-chlorophenyl)-2-(4-methoxyphenyl)-5-oxazolyl]propionamide]
214 to 216 °C	O=C(CCc1oc(-n2cnc3ccccc32)nc1-c1ccc(Cl)cc1)NCc1ccc(-c2ccccc2)cc1 [Example 153, 3-[2-(1H-benzimidazol-1-yl)-4-(4-chlorophenyl)-5-oxazolyl]-N-(4-phenylbenzyl)propionamide]
229 to 230 °C	CCOP(=O)(Cc1ccc(NC(=O)/C=C/c2sc(-n3cnc4ccccc43)nc2-c2ccccc2)cc1)OCC
274 to 275 °C	NC(=O)c1ccc(NC(=O)/C=C/c2oc(-c3ccccc3)nc2-c2ccc(Cl)cc2)cc1 [Example 68, 4-({(2E)-3-[4-(4-chlorophenyl)-2-phenyl-5-oxazolyl]propenoyl}amino)benzamide]
161 to 162 °C	CCOP(=O)(Cc1ccc(NC(=O)CCc2oc(Cc3ccccc3)nc2-c2ccc(Cl)cc2)cc1)OCC
148 to 149 °C	CCOP(=O)(Cc1ccc(NC(=O)CCc2oc(-c3ccc(F)cc3)nc2-c2ccc(Cl)cc2)cc1)OCC
207 to 208 °C	NC(=O)CCc1oc(-c2ccccc2)nc1-c1ccc(Cl)cc1 [Example 43, 3-[4-(4-chlorophenyl)-2-phenyl-5-oxazolyl]propionamide]
114 to 116 °C	CCOP(=O)(Cc1ccc(NC(=O)CCCc2oc(N3CCN(c4ccccn4)CC3)nc2-c2ccc(Cl)cc2)cc1)OCC
181 to 182 °C	CCOC(=O)Cc1ccc(NC(=O)CCc2oc(-n3cnc4ccccc43)nc2-c2ccc(Cl)cc2)cc1 [Example 76, 3-[2-(1H-benzimidazol-1-yl)-4-(4-chlorophenyl)-5-oxazolyl]-N-[4-(ethoxycarbonylmethyl)phenyl]propionamide]
124 to 125 °C	Cc1nc(-c2ccc(Cl)cc2)c(CCC(=O)N2CCS(=O)(=O)CC2)o1 [Example 241, 4-{3-[4-(4-chlorophenyl)-2-methyl-5-oxazolyl]propanoyl}thiomorpholine-1,1-dioxide]
143 to 144 °C	CCOP(=O)(Cc1ccc(NC(=O)CCc2oc(-n3cnc4ccccc43)nc2-c2ccc(OC)cc2)cc1)OCC
190 to 191 °C	O=C(CCc1oc(-n2cnc3ccccc32)nc1-c1ccc(Cl)cc1)NCc1ccc(Cl)cc1 [Example 152, 3-[2-(1H-benzimidazol-1-yl)-4-(4-chlorophenyl)-5-oxazolyl]-N-(4-chlorobenzyl)propionamide]
157 to 158 °C	O=C(CCc1oc(-n2cnc3ccccc32)nc1-c1ccccc1)N1CCC(O)CC1 [Example 247, 1-{3-[2-(1H-benzoimidazol-1-yl)-4-phenyl-5-oxazolyl]propanoyl}-4-piperidinol]
171 to 172 °C	CCOP(=O)(OCC)C(O)c1ccc(NC(=O)CCc2oc(-n3cnc4ccccc43)nc2-c2ccc(Cl)cc2)cc1 (stereo not shown)
221 to 222 °C	O=C(CCc1oc(-n2cnc3ccccc32)nc1-c1ccc(Cl)cc1)Nc1ccc(F)cc1 [Example 128, 3-[2-(1H-benzimidazol-1-yl)-4-(4-chlorophenyl)-5-oxazolyl]-N-(4-fluorophenyl)propionamide]

melting point	SMILES
186 to 187 °C	CCOP(=O)(OCC)c1ccc(NC(=O)CCc2sc(-c3ccccc3)nc2-c2ccc(Cl)cc2)cc1
179 to 180 °C	CCOP(=O)(Cc1ccc(NC(=O)CCc2oc(-n3cnc(C)c3C)nc2-c2ccc(Cl)cc2)cc1)OCC
226 to 227 °C	NC(=O)CCc1oc(-c2cccs2)nc1-c1ccc(Cl)cc1 [Example 25, 3-[4-(4-chlorophenyl)-2-(2-thienyl)-5-oxazolyl]propionamide]
212 to 214 °C	N#CCc1ccc(NC(=O)CCc2oc(-c3ccccc3)nc2-c2ccc(Cl)cc2)cc1 [Example 105, 3-[4-(4-chlorophenyl)-2-phenyl-5-oxazolyl]-N-[4-(cyanomethyl)phenyl]propionamide]
125 to 126 °C	O=C(CCc1oc(-n2cnc3ccccc32)nc1-c1ccc(Cl)cc1)N1CCSC1 [Example 259, 3-{3-[2-(1H-benzoimidazol-1-yl)-4-(4-chlorophenyl)-5-oxazolyl]propanoyl}thiazolidine]
95 to 96 °C	CCOP(=O)(Cc1ccc(NC(=O)CCc2oc(-n3cnc4ccccc43)nc2-c2ccc(F)cc2)cc1)OCC
130 to 131 °C	CCOP(=O)(Cc1ccc(NC(=O)CCc2ocnc2-c2ccc(Cl)cc2)cc1)OCC
182 to 183 °C	CCS(=O)(=O)CCNC(=O)CCc1oc(-n2cnc3ccccc32)nc1-c1ccc(Cl)cc1 [Example 301, 3-[2-(1H-benzoimidazol-1-yl)-4-(4-chlorophenyl)-5-oxazolyl]-N-[2-(ethylsulfonyl)ethyl]propanamide]
250 to 251 °C	O=C(CCc1oc(-n2cnc3ccccc32)nc1-c1ccc(Cl)cc1)NCC(=O)Nc1ccccc1 [Example 149, 2-({3-[2-(1H-benzimidazol-1-yl)-4-(4-chlorophenyl)-5-oxazolyl]propanoyl}amino)-N-phenylacetamide]
187 to 188 °C	N#CCc1ccc(NC(=O)CCCCc2sc(-n3cnc4ccccc43)nc2-c2ccc(Cl)cc2)cc1 [Example 223, 5-[2-(1H-benzimidazol-1-yl)-4-(4-chlorophenyl)-5-thiazolyl]-N-[4-(cyanomethyl)phenyl]pentanamide]
222 to 223 °C	O=C(CCc1oc(-n2cnc3ccccc32)nc1-c1ccc(Cl)cc1)NCc1ccccc1Cl [Example 134, 3-[2-(1H-benzimidazol-1-yl)-4-(4-chlorophenyl)-5-oxazolyl]-N-(2-chlorobenzyl)propionamide]
151 to 152 °C	COc1ccc(-c2nc(-n3cnc4ccccc43)oc2CCC(=O)N2CCN(CC3CCCN(C)C3)CC2)cc1 (stereo not shown) [Example 252, 1-{3-[2-(1H-benzoimidazol-1-yl)-4-(4-methoxyphenyl)-5-oxazolyl]propanoyl}-4-[(1-methylpiperidin-3-yl)methyl]piperazine]
209 to 210 °C	CCN(CC)C(=O)Cc1ccc(NC(=O)CCc2oc(-n3cnc4ccccc43)nc2-c2ccc(Cl)cc2)cc1 [Example 106, 2-[4-({3-[2-(1H-benzimidazol-1-yl)-4-(4-chlorophenyl)-5-oxazolyl]propanoyl}amino)phenyl]-N,N-diethylacetamide]
196 to 198 °C	O=C(CCCc1oc(-n2cnc3ccccc32)nc1-c1ccc(Cl)cc1)NCc1cc(Br)ccc1F [Example 195, 4-[2-(1H-benzimidazol-1-yl)-4-(4-chlorophenyl)-5-oxazolyl]-N-(5-bromo-2-fluorobenzyl)butanamide]
187 to 188 °C	Cc1nccn1-c1nc(-c2ccc(Cl)cc2)c(CCC(=O)Nc2ccc(CC#N)cc2)o1 [Example 141, 3-[4-(4-chlorophenyl)-2-(2-methyl-1-imidazolyl)-5-oxazolyl]-N-[4-(cyanomethyl)phenyl]propionamide]

From patent publication US7183276B2, “Azole compounds” (Takeda Pharmaceutical Company Limited, priority 2002, dated 2007)
